Holding throughout (assay): relative viability (nuclei count vs DMSO), 5 days (fraction); higher = more cells survive
Compound in the assay “Ibrutinib + Trametinib”: C=CC(=O)N1CCC[C@@H](n2nc(-c3ccc(Oc4ccccc4)cc3)c3c(N)ncnc32)C1 [Ibrutinib] + CC(=O)Nc1cccc(-n2c(=O)n(C3CC3)c(=O)c3c(Nc4ccc(I)cc4F)n(C)c(=O)c(C)c32)c1 [Trametinib] (partner 0.02 µM)
In a few lines: (§1)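 Relative viability equals treated-well nuclei counts divided by vehicle-well nuclei counts. Counts came from 4× images of lung cancer cell lines grown in 1536-well plates for 5 days after pin-tool dosing on the day after seeding. Dosing used one drug alone or a fixed anchor-drug dose plus five library-drug doses (not always all listed) in √10 steps, and values are medians of duplicate plates.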

Compound in the assay “BMX-IN-1 + Dasatinib”: C=CC(=O)Nc1cc(-n2c(=O)ccc3cnc4ccc(-c5ccc(NS(C)(=O)=O)cc5)cc4c32)ccc1C [BMX-IN-1] + Cc1nc(Nc2ncc(C(=O)Nc3c(C)cccc3Cl)s2)cc(N2CCN(CCO)CC2)n1 [Dasatinib] (partner 0.075 µM)
In a few lines:
as §1

Compound in the assay “PAC-1 + Phenformin”: C=CCc1cccc(/C=N/NC(=O)CN2CCN(Cc3ccccc3)CC2)c1O [PAC-1] + N=C(N)NC(=N)NCCc1ccccc1 [Phenformin] (partner 250 µM)
In a few lines: as §1

Compound in the assay “PAC-1 + Olaparib”: C=CCc1cccc(/C=N/NC(=O)CN2CCN(Cc3ccccc3)CC2)c1O [PAC-1] + O=C(c1cc(Cc2n[nH]c(=O)c3ccccc23)ccc1F)N1CCN(C(=O)C2CC2)CC1 [Olaparib] (partner 8 µM)
In a few lines: as §1

Regarding NCI-H520, the relative viability stood at 0.486 with Ibrutinib + Trametinib (first compound 0.005 µM); 0.651 with Ibrutinib + Trametinib (first compound 0.01581 µM); 0.653 with Ibrutinib + Trametinib (first compound 0.05 µM); 0.794 in the assay with Ibrutinib + Trametinib (first compound 0.1581 µM); 0.621 with Ibrutinib + Trametinib (first compound 0.5 µM); 0.222 with BMX-IN-1 + Dasatinib (first compound 0.02 µM). Also, the relative viability amounted to 0.263 in the assay with BMX-IN-1 + Dasatinib (first compound 0.2 µM); 0.239 with BMX-IN-1 + Dasatinib (first compound 0.6325 µM); 0.224 in the assay with BMX-IN-1 + Dasatinib (first compound 2 µM); 0.418 in the assay with PAC-1 + Phenformin (first compound 0.02 µM); 0.685 in the assay with PAC-1 + Phenformin (first compound 0.06325 µM); 0.462 in the assay with PAC-1 + Phenformin (first compound 0.2 µM). Also, the relative viability amounted to 0.6 with PAC-1 + Phenformin (first compound 2 µM); 0.382 in the assay with PAC-1 + Olaparib (first compound 0.02 µM); 0.383 with PAC-1 + Olaparib (first compound 0.06325 µM); 0.361 in the assay with PAC-1 + Olaparib (first compound 0.2 µM); 0.33 in the assay with PAC-1 + Olaparib (first compound 2 µM).

As for SK-LU-1, the relative viability is 0.393 with Ibrutinib + Trametinib (first compound 0.005 µM); 0.501 with Ibrutinib + Trametinib (first compound 0.01581 µM); 0.472 with Ibrutinib + Trametinib (first compound 0.05 µM); 0.536 with Ibrutinib + Trametinib (first compound 0.1581 µM); 0.454 with Ibrutinib + Trametinib (first compound 0.5 µM); 0.22 in the assay with BMX-IN-1 + Dasatinib (first compound 0.02 µM). The relative viability in the assay with BMX-IN-1 + Dasatinib (first compound 0.2 µM) is 0.174; with BMX-IN-1 + Dasatinib (first compound 0.6325 µM) it was 0.169; with BMX-IN-1 + Dasatinib (first compound 2 µM), 0.171; in the assay with PAC-1 + Phenformin (first compound 0.02 µM), 0.568; in the assay with PAC-1 + Phenformin (first compound 0.06325 µM) it was 0.547; in the assay with PAC-1 + Phenformin (first compound 0.2 µM) it was 0.432. For the same cell line, the relative viability with PAC-1 + Phenformin (first compound 2 µM) worked out at 0.587; with PAC-1 + Olaparib (first compound 0.02 µM), 0.405; with PAC-1 + Olaparib (first compound 0.06325 µM), 0.465; in the assay with PAC-1 + Olaparib (first compound 0.2 µM), 0.455; in the assay with PAC-1 + Olaparib (first compound 2 µM) it was 0.414.

Take NCI-H2087: the relative viability with Ibrutinib + Trametinib (first compound 0.005 µM) stood at 0.166; with Ibrutinib + Trametinib (first compound 0.01581 µM), 0.196; with Ibrutinib + Trametinib (first compound 0.05 µM), 0.199; with Ibrutinib + Trametinib (first compound 0.5 µM), 0.2; with BMX-IN-1 + Dasatinib (first compound 0.02 µM), 1.25; with BMX-IN-1 + Dasatinib (first compound 0.2 µM) it was 0.931. The relative viability in the assay with BMX-IN-1 + Dasatinib (first compound 0.6325 µM) was found to be 1.03; in the assay with BMX-IN-1 + Dasatinib (first compound 2 µM) it was 0.926; with PAC-1 + Phenformin (first compound 0.02 µM), 0.398; with PAC-1 + Phenformin (first compound 0.06325 µM), 0.42; in the assay with PAC-1 + Phenformin (first compound 0.2 µM), 0.344; with PAC-1 + Phenformin (first compound 2 µM), 0.377. The relative viability is 0.53 with PAC-1 + Olaparib (first compound 0.02 µM), 0.504 with PAC-1 + Olaparib (first compound 0.06325 µM), 0.579 with PAC-1 + Olaparib (first compound 0.2 µM) and 0.451 with PAC-1 + Olaparib (first compound 2 µM).

For the cell line COR-L 105, the relative viability came out at 0.381 with Ibrutinib + Trametinib (first compound 0.005 µM); 0.384 with Ibrutinib + Trametinib (first compound 0.01581 µM); 0.407 with Ibrutinib + Trametinib (first compound 0.05 µM); 0.419 in the assay with Ibrutinib + Trametinib (first compound 0.1581 µM); 0.339 with Ibrutinib + Trametinib (first compound 0.5 µM); 0.324 with BMX-IN-1 + Dasatinib (first compound 0.02 µM). The relative viability amounted to 0.297 with BMX-IN-1 + Dasatinib (first compound 0.2 µM); 0.342 with BMX-IN-1 + Dasatinib (first compound 0.6325 µM); 0.305 with BMX-IN-1 + Dasatinib (first compound 2 µM); 0.465 with PAC-1 + Phenformin (first compound 0.02 µM); 0.484 in the assay with PAC-1 + Phenformin (first compound 0.06325 µM); 0.428 in the assay with PAC-1 + Phenformin (first compound 0.2 µM). Also, the relative viability is 0.455 with PAC-1 + Phenformin (first compound 2 µM); 0.753 in the assay with PAC-1 + Olaparib (first compound 0.02 µM); 0.723 in the assay with PAC-1 + Olaparib (first compound 0.06325 µM); 0.631 in the assay with PAC-1 + Olaparib (first compound 0.2 µM); 0.789 with PAC-1 + Olaparib (first compound 2 µM).

Regarding NCI-H1395, the relative viability with Ibrutinib + Trametinib (first compound 0.005 µM) came out at 0.912; with Ibrutinib + Trametinib (first compound 0.01581 µM), 1.13; in the assay with Ibrutinib + Trametinib (first compound 0.05 µM), 1.16; in the assay with Ibrutinib + Trametinib (first compound 0.1581 µM), 1.04; in the assay with Ibrutinib + Trametinib (first compound 0.5 µM), 1.01; with BMX-IN-1 + Dasatinib (first compound 0.02 µM), 0.408. Moreover, the relative viability with BMX-IN-1 + Dasatinib (first compound 0.2 µM) worked out at 0.579; with BMX-IN-1 + Dasatinib (first compound 0.6325 µM), 0.462; with BMX-IN-1 + Dasatinib (first compound 2 µM), 0.391; with PAC-1 + Phenformin (first compound 0.02 µM) it was 0.45; with PAC-1 + Phenformin (first compound 0.06325 µM), 0.429; with PAC-1 + Phenformin (first compound 0.2 µM), 0.421. In addition, the relative viability with PAC-1 + Phenformin (first compound 2 µM) came out at 0.426; with PAC-1 + Olaparib (first compound 0.02 µM), 0.493; with PAC-1 + Olaparib (first compound 0.06325 µM) it was 0.44; with PAC-1 + Olaparib (first compound 0.2 µM), 0.485; with PAC-1 + Olaparib (first compound 2 µM), 0.46.

As for EKVX, the relative viability worked out at 0.322 with Ibrutinib + Trametinib (first compound 0.005 µM); 0.343 in the assay with Ibrutinib + Trametinib (first compound 0.01581 µM); 0.392 in the assay with Ibrutinib + Trametinib (first compound 0.05 µM); 0.215 with Ibrutinib + Trametinib (first compound 0.5 µM); 0.532 in the assay with BMX-IN-1 + Dasatinib (first compound 0.02 µM); 0.474 with BMX-IN-1 + Dasatinib (first compound 0.2 µM). In addition, the relative viability in the assay with BMX-IN-1 + Dasatinib (first compound 0.6325 µM) was determined as 0.484; with BMX-IN-1 + Dasatinib (first compound 2 µM), 0.59; with PAC-1 + Phenformin (first compound 0.02 µM) it was 0.232; in the assay with PAC-1 + Phenformin (first compound 0.06325 µM) it was 0.244; with PAC-1 + Phenformin (first compound 0.2 µM) it was 0.226; in the assay with PAC-1 + Phenformin (first compound 2 µM) it was 0.195. The relative viability turned out to be 0.987 with PAC-1 + Olaparib (first compound 0.02 µM), 0.847 with PAC-1 + Olaparib (first compound 0.06325 µM), 0.751 with PAC-1 + Olaparib (first compound 0.2 µM) and 0.764 with PAC-1 + Olaparib (first compound 2 µM).

Regarding NCI-H23, the relative viability in the assay with Ibrutinib + Trametinib (first compound 0.005 µM) is 0.313; with Ibrutinib + Trametinib (first compound 0.01581 µM) it was 0.38; with Ibrutinib + Trametinib (first compound 0.05 µM) it was 0.362; with Ibrutinib + Trametinib (first compound 0.1581 µM), 0.366; in the assay with Ibrutinib + Trametinib (first compound 0.5 µM) it was 0.361; in the assay with BMX-IN-1 + Dasatinib (first compound 0.02 µM), 0.839. For the same cell line, the relative viability in the assay with BMX-IN-1 + Dasatinib (first compound 0.2 µM) worked out at 0.994; with BMX-IN-1 + Dasatinib (first compound 0.6325 µM), 0.855; with BMX-IN-1 + Dasatinib (first compound 2 µM), 0.722; in the assay with PAC-1 + Phenformin (first compound 0.02 µM) it was 0.788; with PAC-1 + Phenformin (first compound 0.06325 µM), 0.814; with PAC-1 + Phenformin (first compound 0.2 µM), 0.713. Also, the relative viability was 0.815 with PAC-1 + Phenformin (first compound 2 µM); 0.28 with PAC-1 + Olaparib (first compound 0.02 µM); 0.284 in the assay with PAC-1 + Olaparib (first compound 0.06325 µM); 0.313 with PAC-1 + Olaparib (first compound 0.2 µM); 0.352 with PAC-1 + Olaparib (first compound 2 µM).

NCI-H1792: the relative viability with Ibrutinib + Trametinib (first compound 0.01581 µM) turned out to be 0.404; with Ibrutinib + Trametinib (first compound 0.05 µM) it was 0.48; with Ibrutinib + Trametinib (first compound 0.1581 µM) it was 0.44; with Ibrutinib + Trametinib (first compound 0.5 µM), 0.36; in the assay with BMX-IN-1 + Dasatinib (first compound 0.2 µM) it was 0.817; with BMX-IN-1 + Dasatinib (first compound 0.6325 µM) it was 0.714. The relative viability was found to be 0.862 with BMX-IN-1 + Dasatinib (first compound 2 µM); 0.298 in the assay with PAC-1 + Phenformin (first compound 0.02 µM); 0.257 in the assay with PAC-1 + Phenformin (first compound 0.06325 µM); 0.293 with PAC-1 + Phenformin (first compound 0.2 µM); 0.24 in the assay with PAC-1 + Phenformin (first compound 2 µM); 0.305 in the assay with PAC-1 + Olaparib (first compound 0.02 µM). The figures for the relative viability with PAC-1 + Olaparib (first compound 0.06325 µM), in the assay with PAC-1 + Olaparib (first compound 0.2 µM) and with PAC-1 + Olaparib (first compound 2 µM) were 0.383, 0.0039 and 0.454, respectively.

Regarding NCI-H3122, the relative viability with Ibrutinib + Trametinib (first compound 0.005 µM) came to 0.23; in the assay with Ibrutinib + Trametinib (first compound 0.01581 µM) it was 0.244; in the assay with Ibrutinib + Trametinib (first compound 0.05 µM), 0.251; with Ibrutinib + Trametinib (first compound 0.1581 µM), 0.223; with Ibrutinib + Trametinib (first compound 0.5 µM) it was 0.221; with BMX-IN-1 + Dasatinib (first compound 0.02 µM) it was 1.03. In addition, the relative viability in the assay with BMX-IN-1 + Dasatinib (first compound 0.2 µM) came to 0.936; with BMX-IN-1 + Dasatinib (first compound 0.6325 µM), 0.837; in the assay with BMX-IN-1 + Dasatinib (first compound 2 µM), 0.84; with PAC-1 + Phenformin (first compound 0.02 µM) it was 0.378; in the assay with PAC-1 + Phenformin (first compound 0.06325 µM), 0.377; in the assay with PAC-1 + Phenformin (first compound 0.2 µM), 0.365. Further, the relative viability worked out at 0.333 with PAC-1 + Phenformin (first compound 2 µM); 0.635 in the assay with PAC-1 + Olaparib (first compound 0.02 µM); 0.634 with PAC-1 + Olaparib (first compound 0.06325 µM); 0.624 in the assay with PAC-1 + Olaparib (first compound 0.2 µM); 0.566 with PAC-1 + Olaparib (first compound 2 µM).

For the origin of these results see the supplement of paper PMC10307832.
